In patent US10273233B2, “Inhibitors of influenza viruses replication” (Vertex Pharmaceuticals Incorporated, priority 2015, dated 2019):

Experiments:
[1] = system: A/South Dakota/6/2007; experiment: 3-day CP assay in MDCK cells; assay type: cell-based; details: Influenza A virus
[2] = system: A/Santiago/7981/2006; experiment: 3-day CP assay in MDCK cells; assay type: cell-based; details: Influenza A virus
[3] = system: A/Hawaii/2/2006; experiment: 3-day CP assay in MDCK cells; assay type: cell-based; details: Influenza A virus
[4] = system: A/Virginia/ATCC3/2009; experiment: 3-day CP assay in MDCK cells; assay type: cell-based; details: Influenza A virus
[5] = system: A/VN/1203/2004 (H5N1); experiment: microbe, parasite or virus in culture; assay type: cell-based; details: Influenza A virus, H5N1, MDCK
[6] = system: A/St. Petersburg8/2006; experiment: 3-day CP assay in MDCK cells; assay type: cell-based; details: Influenza A virus
[7] = system: A/California/07/2009 NYMC, X-179A; experiment: 3-day CP assay in MDCK cells; assay type: cell-based; details: Influenza A virus
[8] = system: A/Georgia/17/2006; experiment: 3-day CP assay in MDCK cells; assay type: cell-based; details: Influenza A virus
[9] = system: A/Denver/1/57; experiment: 3-day CP assay in MDCK cells; assay type: cell-based; details: Influenza A virus
[10] = system: A/Cambodia0371/2007; experiment: 3-day CP assay in MDCK cells; assay type: cell-based; details: Influenza A virus
[11] = system: B/Russia/69; experiment: 3-day CP assay in MDCK cells; assay type: cell-based; details: Influenza B virus
[12] = system: influenza type A (H1N1, H3N2, and H3N8) viral strains; assay type: cell-based
[13] = system: A/Henan/Jinshui/147/2007; experiment: 3-day CP assay in MDCK cells; assay type: cell-based; details: Influenza A virus
[14] = system: A/Missouri/3/2006; experiment: 3-day CP assay in MDCK cells; assay type: cell-based; details: Influenza A virus
[15] = system: A/Wisconsin/67/2005; experiment: 3-day CP assay in MDCK cells; assay type: cell-based; details: Influenza A virus
[16] = system: A/NWS/33; experiment: 3-day CP assay in MDCK cells; assay type: cell-based, influenza A
[17] = system: B/Memphis/20/1996--071; experiment: 3-day CP assay in MDCK cells; assay type: cell-based; details: Influenza B virus
[18] = system: A/Uruguay/716/2007; experiment: 3-day CP assay in MDCK cells; assay type: cell-based; details: Influenza A virus
[19] = system: A/Fukushima/141/2006; experiment: 3-day CP assay in MDCK cells; assay type: cell-based; details: Influenza A virus
[20] = system: influenza B; experiment: Influenza B mouse model, Compound (1) with oseltamivir; assay type: in vivo, Mice
Experimental: The consequence of combining Compound (1) and oseltamivir was explored in the influenza B mouse model. Mice were dosed prophylactically with vehicle (10 mL/kg 0.5% MC), 10 mg/kg oseltamivir, or oseltamivir in combination with Compound (1) at 10 mg/kg, 30 mg/kg or 60 mg/kg BID and treatment continued for 10 days.

[21] = system: A/Georgia/20/2006; experiment: 3-day CP assay in MDCK cells; assay type: cell-based, influenza A
[22] = system: B/Memphis/20/1996--070; experiment: 3-day CP assay in MDCK cells; assay type: cell-based; details: Influenza B virus
[23] = system: A/Victoria/3/75; experiment: 3-day CP assay in MDCK cells; assay type: cell-based; details: Influenza A virus
[24] = system: A/Equine/Miami/63; experiment: microbe, parasite or virus in culture; assay type: cell-based; details: Influenza A virus, MDCK
[25] = system: A/Hong Kong/8/68; experiment: 3-day CP assay in MDCK cells; assay type: cell-based; details: Influenza A virus
[26] = system: A/Nebraska/1/2006; experiment: 3-day CP assay in MDCK cells; assay type: cell-based; details: Influenza A virus
[27] = system: B/Lee/40; experiment: 3-day CP assay in MDCK cells; assay type: cell-based; details: Influenza B virus
[28] = system: A/Virginia/ATCC2/2009; experiment: 3-day CP assay in MDCK cells; assay type: cell-based; details: Influenza A virus
[29] = system: A/Aichi/2/68; experiment: 3-day CP assay in MDCK cells; assay type: cell-based; details: Influenza A virus
[30] = system: A/California/07/2009; experiment: 3-day CP assay in MDCK cells; assay type: cell-based; details: Influenza A virus, H1N1, MDCK, in Sus scrofa
[31] = system: A/Texas/12/2007; experiment: 3-day CP assay in MDCK cells; assay type: cell-based; details: Influenza A virus
[32] = system: A/Chelyabinsk/1/200; experiment: 3-day CP assay in MDCK cells; assay type: cell-based; details: Influenza A virus
[33] = system: A/Puerto Rico/8/34; experiment: 3-day CP assay in MDCK cells; assay type: cell-based; details: Influenza A virus
[34] = system: A/Mal/302/54; experiment: 3-day CP assay in MDCK cells; assay type: cell-based; details: Influenza A virus
[35] = system: A/Swine/1976/31; experiment: microbe, parasite or virus in culture; assay type: cell-based; details: Influenza A virus, MDCK, in Sus scrofa
[36] = system: A/Swine/Iowa/15/30; experiment: microbe, parasite or virus in culture; assay type: cell-based, influenza A; details: read-out: EC50
[37] = system: A/Port Chalmers/1/73; experiment: 3-day CP assay in MDCK cells; assay type: cell-based; details: Influenza A virus
[38] = system: A/WS/33; experiment: 3-day CP assay in MDCK cells; assay type: cell-based; details: Influenza A virus
[39] = system: A/Texas/48/2009; experiment: 3-day CP assay in MDCK cells; assay type: cell-based; details: Influenza A virus

**Q.** Which results are given for CC(C)(C)[C@@H](CC(=O)O)Nc1nc(-c2c[nH]c3ncc(F)cc23)ncc1F [Compound (1)]?
**A.** EC50 [1]: 0.52 nM; EC50 [2]: 1.8 nM; EC50 [3]: 1.2 nM; EC50 [4]: 1.2 nM; EC50 [5]: 4.2 nM; EC50 [6]: 1.3 nM; EC50 [7]: 10 nM; EC50 [8]: 9.1 nM; EC50 [9]: 1.4 nM; EC50 [10]: 1.2 nM; EC50 [11]: > 10000 nM; EC50 [12]: 4.3 nM; EC50 [13]: 19 nM; EC50 [14]: 2.6 nM; EC50 [15]: 3.7 nM; EC50 [16]: 1.7 nM; EC50 [17]: > 10000 nM; EC50 [18]: 1 nM; EC50 [19]: 1.5 nM; survival benefit and protection from BW and lung function loss ([20]; 10, 30 or 60 mg/kg BID Compound (1) in combination with oseltamivir 10 mg/kg BID, prophylactic, 10 days): the same survival benefit and protection from BW and lung function loss as oseltamivir treatment alone; interaction when added to oseltamivir therapy ([20]; Compound (1) added to oseltamivir therapy): no negative interaction; activity against influenza B ([20]; mouse, in vivo): lack of Compound (1) activity against influenza B; EC50 [21]: 1.7 nM; EC50 [22]: > 10000 nM; EC50 [23]: 2.1 nM; EC50 [24]: 3.7 nM; EC50 [25]: 1.9 nM; EC50 [26]: 1.9 nM; EC50 [27]: > 10000 nM; EC50 [28]: 1.4 nM; EC50 [29]: 4.4 nM; EC50 [30]: 4 nM; EC50 [31]: 30 nM; EC50 [32]: 3.1 nM; EC50 [33]: 14 nM; EC50 [34]: 3.9 nM; EC50 [35]: 5.2 nM; EC50 [36]: 4.3 nM; EC50 [37]: 2.3 nM; EC50 [38]: 2.4 nM; EC50 [39]: 1.2 nM
